Experimental findings from article PMC8486872, “A rational blueprint for the design of chemically-controlled protein switches” (Nature Communications, 2021) are described below.

Test [1] has as its target T1, LD3 in the presence of Drug-1 (Homo sapiens, UniProt Q07817, DEL45-84/F105I/R102E).
T1 construct: 6xHis (N); made in house; host or cells: E. coli BL21(DE3)
Description: SPR pre-screening and competition of Drug-1 resistant Bcl-XL mutants binding LD3. The note with it: Fig S10d. The procedure: Supplementary Figure 10: Biophysical and cellular characterization of designed Drug-1- […]
a) Pre-screening of Drug-1 resistant Bcl-XL mutants by SPR. 5 µM of Bcl-XL and five mutants were mixed with 10 µM of Drug-1 and injected over the LD3 immobilized chip to analyse the binding response. […]
dilutions of Drug-1 were pre-mixed with 4 µM LD3 and injected over iBcl-XL_v3 immobilized chip to collect the response. c) Dissociation constant measurement of iBcl-XL_v3 and LD3. Sensorgrams are in black dashed curves and the fitted curves in solid red lines. Kd was using a 1:1 binding model. d) […]
normalized to the positive control (DMSO group). […]

Test [2] deals with JAK/STAT pathway SEAP expression in HEK293T cells. Kind of test: AIR-GEMS ON-switch SEAP assay. The note with it: Homo sapiens, HEK-293T, read-out: EC50, AIR-2-GEMS activation by Drug-2.
Description: We fused the AIR components in the ectodomains of the GEMS and measured SEAP activity as a reporter for drug-triggered activation.
HEK293T cells were maintained in DMEM medium with 10% FBS (Gibco) and Pen/Strep (Thermo Fisher). Cells were maintained and split every two days at around 80% confluence. HEK293T cells were seeded 24 h before transfection, and transfected with the lipofectamine 3000 kit (Thermo Fisher). Plasmids were cotransfected according to the Table S7. For the drug OFF-switch experiments, drugs were added 12 h post transfection and incubated with cells for 24 h before the SEAP detection assay.
Representative data of cellular assays are presented as individual values and mean values (bars). n = 3 refers to biological replicates. All IC50/EC50 values of cellular assays (CDH-TF, CDH-GEMS, AIR-TF and AIR-GEMS) reported were calculated using four-parameter nonlinear regression ± s.d.
Bcl2 mutants were cloned into the AIR-GEMS

Several values for one entry are separate records, joined by “and”; a condition that tells them apart may be missing. Equal values may be shown once.

T1 sequence (Q07817 with tags, fused parts or gaps DEL45-84/R102E/F105I limits assumed): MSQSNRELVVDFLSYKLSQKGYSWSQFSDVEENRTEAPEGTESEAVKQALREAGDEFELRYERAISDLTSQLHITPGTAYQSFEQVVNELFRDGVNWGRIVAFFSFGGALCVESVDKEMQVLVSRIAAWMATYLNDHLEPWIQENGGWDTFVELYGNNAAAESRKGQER

Turning to `CN(C)CC#Cc1ccc(OCCCc2sc(N3CCc4cccc(C(=O)Nc5nc6ccccc6s5)c4C3)nc2C(=O)O)c(F)c1` [Drug-1, A-1155463], the iBcl-XL_v3 response in test [1] (Drug-1 0.001 nM) was 174.876 and 175.206 and 177.174; in test [1] (Drug-1 0.01 nM) it was 215.202 and 222.394 and 221.188; in test [1] (Drug-1 0.05 nM), 207.736 and 204.171 and 203.036; in test [1] (Drug-1 0.1 nM), 189.507 and 193.343 and 194.134; in test [1] (Drug-1 0.5 nM), 204.985 and 206.922 and 206.979; in test [1] (Drug-1 1 nM), 184.864 and 185.609 and 186.635. In addition, the iBcl-XL_v3 response in test [1] (Drug-1 10 nM) was 194.117 and 193.916 and 200.456; in test [1] (Drug-1 50 nM), 193.965 and 195.069 and 198.505; in test [1] (Drug-1 100 nM), 183.254 and 186.244 and 183.907; in test [1] (Drug-1 500 nM), 165.059 and 166.616 and 165.103; in test [1] (Drug-1 1000 nM), 154.762 and 156.9 and 154.341. The IC50 (in general, the point on the concentration scale where inhibition reaches its midpoint) in test [1] (iBcl-XL_v3, best-fit, inhibitor vs. response (three parameters)) worked out at 705 nM. In test [1] (iBcl-XL_v3, best-fit, three parameters, Drug-1 in nM), the logIC50 stood at 2.848.

For `CC1(C)CCC(CN2CCN(c3ccc(C(=O)NS(=O)(=O)c4ccc(NCC5CCOCC5)c([N+](=O)[O-])c4)c(Oc4cnc5[nH]ccc5c4)c3)CC2)=C(c2ccc(Cl)cc2)C1` [Drug-2, Venetoclax], in test [2], the EC50 (usually the midpoint of the concentration-response curve) was 0.5 nM.
